Measured values from patent US20150045410A1, “METHOD OF REGULATING CFTR EXPRESSION AND PROCESSING” (University of Iowa Research Foundation, priority 2012, published 2015).

Columns and labels:
[1] = system: CFTR; assay: Transepithelial conductance and current (Ussing chamber) in primary human airway epithelia; assay type: cell-based
Protocol: Airway epithelia from human trachea and primary bronchus removed from organs donated for research were cultured at the air-liquid interface (ALI) (Karp, P. H. et al. An in vitro model of differentiated human airway epithelia. Methods for establishing primary cultures. Methods Mol. Biol. 188, 115-137 (2002)). These studies were approved by the Institutional Review Board of the University of Iowa. Briefly, airway epithelial cells were dissociated from native tissue by pronase enzyme digestion. Permeable membrane inserts (0.6 cm^2 Millipore-PCF, 0.33 cm^2 Costar-Polyester) pre-coated with human placental collagen (IV, Sigma) were seeded with freshly dissociated epithelia. Seeding culture media used was DMEM/F-12 medium supplemented with 5% FBS, 50 units/mL penicillin, 50 μg/mL streptomycin, 50 μg/mL gentamicin, 2 μg/mL fluconazole, and 1.25 μg/mL amphotericin B. For epithelia from cystic fibrosis (CF) patients, the following additional antibiotics were used for the first 5 days: 77 μg/mL ceftazidime, 12.5 μg/mL imipenem and cilastatin, 80 μg/mL tobramycin, 25 μg/mL piperacillin and tazobactam, 20 μg/mL sulfamethoxazole, and 4 μg/mL trimethoprim. After seeding, the cultures were maintained in DMEM/F-12 medium supplemented with 2% Ultroser G (USG, Pall Biosepra) and the above listed antibiotics.
Transepithelial Cl^− current measurements were made in Ussing chambers about 2 weeks post-seeding (Itani, 0. A. et al. Human cystic fibrosis airway epithelia have reduced Cl− conductance but not increased Na+ conductance. Proc. Natl. Acad. Sci. USA 108, 10260-10265 (2011)). Briefly, primary cultures were mounted in a modified Ussing chamber (Jim's Instruments, 8 wells per instrument). Transepithelial Cl^− current was measured under short-circuit current conditions. Cultures were incubated overnight with 10 μM forskolin and 100 μM 3-isobutyl-1-methylxanthine (IBMX). After measuring baseline current, the transepithelial current (It) response to sequential apical addition of 100 μM amiloride (Amil), 100 μM 4,4′-diisothiocyanoto-stilbene-2,2′-disulfonic acid (DIDS), 4.8 mM [Cl^−], 10 μM forskolin and 100 μM 3-isobutyl-1-methylxanthine (IBMX), and 100 μM GlyH-101 was measured. Studies were conducted with a Cl^− concentration gradient containing 135 mM NaCl, 1.2 mM MgCl2, 1.2 mM CaCl2, 2.4 mM K2PO4, 0.6 mM KH2PO4, 5 mM dextrose, and 5 mM Hepes (pH 7.4) on the basolateral surface, and gluconate substituted for Cl^− on the apical side. […]

[2] = system: CFTR-ΔF508; assay: CFTR-ΔF508 mRNA and protein in primary cultures of CF airway epithelia; assay type: cell-based, human
Protocol: Airway epithelia from human trachea and primary bronchus removed from organs donated for research were cultured at the air-liquid interface (ALI) (Karp, P. H. et al. An in vitro model of differentiated human airway epithelia. Methods for establishing primary cultures. Methods Mol. Biol. 188, 115-137 (2002)). These studies were approved by the Institutional Review Board of the University of Iowa. Briefly, airway epithelial cells were dissociated from native tissue by pronase enzyme digestion. Permeable membrane inserts (0.6 cm^2 Millipore-PCF, 0.33 cm^2 Costar-Polyester) pre-coated with human placental collagen (IV, Sigma) were seeded with freshly dissociated epithelia. […]
First-strand cDNA was synthesized using SuperScript® II (Invitrogen), and oligo-dT and random-hexamer primers. […] To quantitate miRNAs, TaqMan® microRNA Assays (Applied Biosystems) were obtained for miR-138, RNU48 (control) and 8 other miRNAs (negative control, miRs-21, -24, -26a, -200c, -146a, -146b, -27a*, -134). […] All experiments were performed in quadruplicate. mRNA and miRNA quantification in cell lines represents 8 independent transfections in 4 separate experiments. mRNA quantification in human primary airway epithelial cultures represent 8 independent transfections in 8 non-CF donors and 4 CF donors. […]

miR-138 mimic: synthetic modified RNA duplex, sense SEQ ID NO: 4, antisense SEQ ID NO: 5, showing miR-138-like activity
It (transepithelial current) response to cAMP-dependent stimulation [1]: no change
cAMP-stimulated Gt [1]: increased
CFTR-ΔF508 mRNA and protein [2]: increased

SIN3A DsiRNA: Dicer-substrate siRNA against SIN3A, sense SEQ ID NO: 6, antisense SEQ ID NO: 7 (sense GCGAUACAUGAAUUCAGAUACUACC; antisense GGUAGUAUCUGAAUUCAUGUAUCGCUC; chemistry not given here)
It (transepithelial current) response to cAMP-dependent stimulation [1]: no change
cAMP-stimulated Gt [1]: increased
CFTR-ΔF508 mRNA and protein [2]: increased
